Reference: patent US11571397B2, “Compositions and methods for treating seizure-induced sudden death” (ZOGENIX INTERNATIONAL LIMITED, priority 2018, dated 2023)

What was measured:
DBA/1 mice = assay: Reversal of FFA's anticonvulsant and S-IRA blocking effects by selective 5-HT receptor antagonists in DBA/1 mice; assay type: in vivo, mouse
Experimental: (§1) For these experiments, DBA/1 mice (N=287) were used (after subjecting to the established priming procedure to assure consistent susceptibility to S-IRA following AGSz) to assess the effects of fenfluramine on various 5-HT receptors. Seizures were induced using an electrical bell, and resuscitation was accomplished using a rodent respirator (Faingold et al., 2010). At least 24 hours after priming, the mice received FFA (15 mg/kg, i.p.) and were tested for AGSz and S-IRA susceptibility 16 hours later. Thirty minutes prior to AGSz induction, a selective 5-HT receptor antagonist or vehicle was administered to evaluate if a specific receptor contributes to the ability of FFA to block S-IRA. Seizure behaviors were recorded on videotape, quantified, and compared statistically with vehicle-treated negative and FFA-treated positive controls (Chi-Square Test; significance set at p<0.05).
Specifically, the antagonists tested were: the 5-HT1A antagonist WAY100635 (0.1-15 mg/kg); the 5-HT2 antagonist Ritanserin (10-20 mg/kg); the 5-HT3 antagonist Ondansetron (1-3 mg/kg); the 5-HT4 antagonist GR125487 (20-60 mg/kg); the 5-HT5A antagonist SB669551 (10-20 mg/kg); and the 5-HT7 antagonist SB269970 (30-40 mg/kg). Studies investigating the effect of 5-HT6 and 5-HT1a/1b antagonists are also underway.
as §1, with “mice” for “mice (N=287)”

DBA mice = conditions: cited from earlier work; for seizure-induced respiratory failure and death: DBA mice, dose-dependent
[1] = dietary supplementation, DBA/1 mice

CN(C)CCN(Cc1ccc(-c2ccc(CNCCc3ccccc3)cc2)cc1)C(=O)CCC1CCCC1 [SB669551]
effect on FFA's anticonvulsant effect (DBA/1 mice; antagonist at 20 mg/kg, FFA 15 mg/kg): blocked

COCCCC/C(=N\OCCN)c1ccc(C(F)(F)F)cc1 [fluvoxamine]
seizure-induced respiratory failure and death (DBA mice): prevent

N[C@@H](Cc1c[nH]c2ccc(O)cc12)C(=O)O [5-hydroxytryptophan]
S-IRA (DBA mice; [1]): blocked
incidence of AGSz behaviors (DBA mice; [1]): significantly reduced

Cc1nc2sccn2c(=O)c1CCN1CCC(=C(c2ccc(F)cc2)c2ccc(F)cc2)CC1 [Ritanserin]
reversal of FFA's anticonvulsant effect against the severity of AGSz (DBA/1 mice; antagonist 20 mg/kg, FFA 15 mg/kg): able to reverse

COc1[nH]c2ccc(F)cc2c1C(=O)OCC1CCN(CCNS(C)(=O)=O)CC1 [GR125487]
reversal of the FFA-induced S-IRA blockade (DBA/1 mice; antagonist 30 mg/kg, 30 min before AGSz, FFA 15 mg/kg i.p. 16 h before, p<0.05): partial reversal
reversal of FFA's anticonvulsant effect against the severity of AGSz (DBA/1 mice; antagonist 30 and 60 mg/kg, FFA 15 mg/kg): able to reverse

CN[C@H]1CC[C@@H](c2ccc(Cl)c(Cl)c2)c2ccccc21 [sertraline]
seizure-induced respiratory failure and death (DBA mice): prevent

CNCCC(Oc1ccc(C(F)(F)F)cc1)c1ccccc1 (centres unmarked) [fluoxetine]
seizure-induced respiratory failure and death (DBA mice): prevent

CC1CCN(CC[C@H]2CCCN2S(=O)(=O)c2cccc(O)c2)CC1 [SB269970]
reversal of FFA's anticonvulsant effect against the severity of AGSz (DBA/1 mice; antagonist 30 mg/kg and 40 mg/kg, FFA 15 mg/kg): able to reverse

CNCC[C@@H](Oc1ccccc1C)c1ccccc1 [atomoxetine]
seizure-induced respiratory failure and death (DBA mice): prevent

Cc1nccn1CC1CCc2c(c3ccccc3n2C)C1=O (centres unmarked) [Ondansetron]
reversal of FFA's effect (DBA/1 mice; antagonist 1-3 mg/kg, FFA 15 mg/kg): not effective at any dose tested

COc1ccccc1N1CCN(CCN(C(=O)C2CCCCC2)c2ccccn2)CC1 [WAY100635]
reversal of FFA's effect (DBA/1 mice; antagonist 0.1-15 mg/kg, FFA 15 mg/kg): not effective at any dose tested

COc1ccc(C(CN(C)C)C2(O)CCCCC2)cc1 (centres unmarked) [venlafaxine]
seizure-induced respiratory failure and death (DBA mice): prevent
